Laboratory results as given in US8530493B2, “Indolopyridines as Eg5 kinesin modulators” (4SC AG, priority 2006, dated 2013).

test system: RKO p21 uninduced (proliferating) colon adenocarcinoma cells; assay: Alamar Blue cell viability assay, RKO p21 uninduced (proliferating); type: cell-based; settings: Homo sapiens, Table B3, anti-proliferative/cytotoxic activity, 72 hours, read-out: −log EC50 RKO p21 uninduced (proliferating) (converted)
Description: The anti-proliferative/cytotoxic activity of the compounds described herein can be tested on subclones of RKO human colon adenocarcinoma cells (Schmidt et al., Oncogene 19, 2423-2429; 2000) using the Alamar Blue cell viability assay (described in O'Brien et al. Eur J Biochem 267, 5421-5426, 2000). The compounds are dissolved as 10 mM solutions in DMSO and subsequently diluted in semi-logarithmic steps. DMSO dilutions are further diluted 1:100 into Dulbecco's modified Eagle's medium (DMEM) containing 10% fetal calf serum to a final concentration twice as much as the final concentration in the test. RKO subclones are seeded into 96 well flat bottom plates at a density of 4000 cells per well in a volume of 50 μl per well. 24 hours after seeding the 50 μl each of the compound dilutions in DMEM medium are added into each well of the 96 well plate. Each compound dilution is tested as triplicates. Wells containing untreated control cells are filled with 50 μl DMEM medium containing 1% DMSO. The cells are then incubated with the substances for 72 hours at 37° C. in a humidified atmosphere containing 5% carbon dioxide. To determine the viability of the cells, 10 μl of an Alamar Blue solution (Biosource) are added and the fluorescence is measured at an extinction of 544 nm and an emission of 590 nm. For the calculation of the cell viability the emission value from untreated cells is set as 100% viability and the emission rates of treated cells are set in relation to the values of untreated cells. Viabilities are expressed as % values. The Graphpad Prism program is used for the calculation of EC50 values for anti-proliferative/cytotoxic activity out of the obtained dose-response curves.
To determine the cell cycle specific mode of action, subclones of RKO colon adenocarcinoma cells (RKOp21 or RKOp27 as described by Schmidt et al. in Oncogene 19, 2423-2429; 2000) are seeded into 96 well flat bottom plates at a density of 16000 cells per well in a volume of 50 μl per well in DMEM growth medium with 10% FCS containing 10 μM Ponasterone A. 24 hours after seeding the 50 μl each of the compound dilutions in DMEM medium are added into each well of the 96-well plate. Each compound dilution is tested as triplicates. Wells containing untreated control cells are filled with 50 μl DMEM medium containing 1% DMSO. The cells are then incubated with the substances for 72 hours at 37° C. in a humidified atmosphere containing 5% carbon dioxide. To determine the viability of the cells, 10 μl of an Alamar Blue solution (Biosource) are added and the fluorescence is measured at an extinction of 544 nm and an emission of 590 nm. For the calculation of the cell viability the emission value from untreated cells is set as 100% viability and the emission rates of treated cells are set in relation to the values of untreated cells. Viabilities are expressed as % values. The Graphpad Prism program (GraphPad Software, Inc) is used for the calculation of EC50 values out of the obtained dose-response curves. Viability is compared of proliferating cells grown in the absence of the inducer Ponasterone A, versus viability of cells arrested by the expression of ectopic p27Kip1 induced by Ponasterone A.
Representative values for anti-proliferation/cytotoxicity [measured as −log EC50 (mol/l)] determined in the aforementioned assays follow from the following tables B1, B2 and B3, in which the numbers of the compounds correspond to the numbers of the examples.

Q: For C#CCN(C)CCCN1C(=O)N2[C@H](c3cccc(O)c3)c3[nH]c4ccc(Cl)cc4c3C[C@@]2(C)C1=O (racemic) [Example 170, (3aSR,10RS)-6-Chloro-10-(3-hydroxy-phenyl)-3a-methyl-2-[3-(methyl-prop-2-ynyl-amino)-propyl]-3a,4,9,10-tetrahydro-2,9,10a-triaza-cyclopenta[b]fluorene-1,3-dione], which EC50 is on record?
A: The EC50 was 39.8 to 251 nM.

Q: C[C@@]12Cc3c([nH]c4ccc(Cl)cc34)[C@@H](c3cccc(O)c3)N1C(=O)N(CCCN1CCOCC1)C2=O (racemic) [Example 171, (3aSR,10RS)-6-Chloro-10-(3-hydroxy-phenyl)-3a-methyl-2-(3-morpholin-4-yl-propyl)-3a,4,9,10-tetrahydro-2,9,10a-triaza-cyclopenta[b]fluorene-1,3-dione] was tested. Which EC50 did it give?
A: Its EC50 is no more than 39.8 nM.

Q: C[C@@]12Cc3c([nH]c4ccc(Cl)cc34)[C@@H](c3cccc(O)c3)N1C(=O)N(CCCN1CCCC1)C2=O (racemic) [Example 172, (3aSR,10RS)-6-Chloro-10-(3-hydroxy-phenyl)-3a-methyl-2-(3-pyrrolidin-1-yl-propyl)-3a,4,9,10-tetrahydro-2,9,10a-triaza-cyclopenta[b]fluorene-1,3-dione] was tested. Which EC50 did it give?
A: Its EC50 is no more than 39.8 nM.

Q: With C[C@@]12Cc3c([nH]c4ccc(Cl)cc34)[C@@H](c3cccc(O)c3)N1C(=O)N(CCCN1CC=CC1)C2=O (racemic) [Example 173, (3aSR,10RS)-6-Chloro-2-[3-(2,5-dihydro-pyrrol-1-yl)-propyl]-10-(3-hydroxy-phenyl)-3a-methyl-3a,4,9,10-tetrahydro-2,9,10a-triaza-cyclopenta[b]fluorene-1,3-dione] as the compound, how does the EC50 read?
A: Its EC50 is no more than 39.8 nM.

Q: With C[C@@]12Cc3c([nH]c4ccc(Cl)cc34)[C@@H](c3cccc(O)c3)N1C(=O)N(CCCN1CC=CCC1)C2=O (racemic) [Example 174, (3aSR,10RS)-6-Chloro-2-[3-(3,6-dihydro-2H-pyridin-1-yl)-propyl]-10-(3-hydroxy-phenyl)-3a-methyl-3a,4,9,10-tetrahydro-2,9,10a-triaza-cyclopenta[b]fluorene-1,3-dione] as the compound, how does the EC50 read?
A: Its EC50 is no more than 39.8 nM.

Q: CN1CCN(CCCN2C(=O)N3[C@H](c4cccc(O)c4)c4[nH]c5ccc(Cl)cc5c4C[C@@]3(C)C2=O)CC1 (racemic) [Example 175, (3aSR,10RS)-6-Chloro-10-(3-hydroxy-phenyl)-3a-methyl-2-[3-(4-methyl-piperazin-1-yl)-propyl]-3a,4,9,10-tetrahydro-2,9,10a-triaza-cyclopenta[b]fluorene-1,3-dione] was tested. Which EC50 did it give?
A: Its EC50 is no more than 39.8 nM.

Q: For CCN(CC)CCCN1C(=O)N2[C@H](c3cccc(O)c3)c3[nH]c4ccc(OC(F)F)cc4c3C[C@@]2(C)C1=O (racemic) [Example 176, (3aSR,10RS)-2-(3-Diethylamino-propyl)-6-(1,1-difluoro-methoxy)-10-(3-hydroxy-phenyl)-3a-methyl-3a,4,9,10-tetrahydro-2,9,10a-triaza-cyclopenta[b]fluorene-1,3-dione], which EC50 is on record?
A: Its EC50 is no more than 39.8 nM.

Q: With CCN(CCO)CCCN1C(=O)N2[C@H](c3cccc(O)c3)c3[nH]c4ccc(OC(F)F)cc4c3C[C@@]2(C)C1=O (racemic) [Example 177, (3aSR,10RS)-6-(1,1-Difluoro-methoxy)-2-{3-[ethyl-(2-hydroxy-ethyl)-amino]-propyl}-10-(3-hydroxy-phenyl)-3a-methyl-3a,4,9,10-tetrahydro-2,9,10a-triaza-cyclopenta[b]fluorene-1,3-dione] as the compound, how does the EC50 read?
A: Its EC50 is no more than 39.8 nM.

Q: With CCN(CCCN1C(=O)N2[C@H](c3cccc(O)c3)c3[nH]c4ccc(OC(F)F)cc4c3C[C@@]2(C)C1=O)CCOC (racemic) [Example 178, (3aSR,10RS)-6-(1,1-Difluoro-methoxy)-2-{3-[ethyl-(2-methoxy-ethyl)-amino]-propyl}-10-(3-hydroxy-phenyl)-3a-methyl-3a,4,9,10-tetrahydro-2,9,10a-triaza-cyclopenta[b]fluorene-1,3-dione] as the compound, how does the EC50 read?
A: The EC50 was no more than 39.8 nM.

Q: CC(C)N(C)CCCN1C(=O)N2[C@H](c3cccc(O)c3)c3[nH]c4ccc(OC(F)F)cc4c3C[C@@]2(C)C1=O (racemic) [Example 179, (3aSR,10RS)-6-(1,1-Difluoro-methoxy)-10-(3-hydroxy-phenyl)-2-[3-(isopropyl-methyl-amino)-propyl]-3a-methyl-3a,4,9,10-tetarhydro-2,9,10a-triaza-cyclopenta[b]fluorene-1,3-dione] was tested. Which EC50 did it give?
A: Its EC50 is no more than 39.8 nM.

Q: C[C@@]12Cc3c([nH]c4ccc(Cl)cc34)[C@@H](c3cccc(O)c3)N1C(=O)N(CCCN1CCCCCC1)C2=O (racemic) [Example 180, (3aSR,10RS)-2-(3-Azepan-1-yl-propyl)-6-chloro-10-(3-hydroxy-phenyl)-3a-methyl-3a,4,9,10-tetrahydro-2,9,10a-triaza-cyclopenta[b]fluorene-1,3-dione] was tested. Which EC50 did it give?
A: Its EC50 is no more than 39.8 nM.

Q: How did the EC50 turn out when C[C@@]12Cc3c([nH]c4ccc(Cl)cc34)[C@@H](c3cccc(O)c3)N1C(=O)N(CCCN1CCCCC1)C2=O (racemic) [Example 181, (3aSR,10RS)-6-Chloro-10-(3-hydroxy-phenyl)-3a-methyl-2-(3-piperidin-1-yl-propyl)-3a,4,9,10-tetrahydro-2,9,10a-triaza-cyclopenta[b]fluorene-1,3-dione] was run?
A: The EC50 was no more than 39.8 nM.

Q: CC(C)(C)NCCCN1C(=O)N2[C@H](c3cccc(O)c3)c3[nH]c4ccc(OC(F)F)cc4c3C[C@@]2(C)C1=O (racemic) [Example 182, (3aSR,10RS)-2-(3-tert-Butylamino-propyl)-6-(1,1-difluoro-methoxy)-10-(3-hydroxy-phenyl)-3a-methyl-3a,4,9,10-tetrahydro-2,9,10a-triaza-cyclopenta[b]fluorene-1,3-dione] was tested. Which EC50 did it give?
A: Its EC50 is no more than 39.8 nM.

Q: C=CCN(C)CCCN1C(=O)N2[C@H](c3cccc(O)c3)c3[nH]c4ccc(OC(F)F)cc4c3C[C@@]2(C)C1=O (racemic) [Example 184, (3aSR,10RS)-2-[3-(Allyl-methyl-amino)-propyl]-6-(1,1-difluoro-methoxy)-10-(3-hydroxy-phenyl)-3a-methyl-3a,4,9,10-tetrahydro-2,9,10a-triaza-cyclopenta[b]fluorene-1,3-dione] was tested. Which EC50 did it give?
A: Its EC50 is 39.8 to 251 nM.

Q: COCCNCCCN1C(=O)N2[C@H](c3cccc(O)c3)c3[nH]c4ccc(Cl)cc4c3C[C@@]2(C)C1=O (racemic) [Example 185, (3aSR,10RS)-6-Chloro-10-(3-hydroxy-phenyl)-2-[3-(2-methoxy-ethylamino)-propyl]-3a-methyl-3a,4,9,10-tetrahydro-2,9,10a-triaza-cyclopenta[b]fluorene-1,3-dione] was tested. Which EC50 did it give?
A: Its EC50 is no more than 39.8 nM.

Q: With CCOc1ccc2[nH]c3c(c2c1)C[C@@]1(C)C(=O)N(CCCNC)C(=O)N1[C@@H]3c1cccc(O)c1 (racemic) [Example 186, (3aSR,10RS)-6-Ethoxy-10-(3-hydroxy-phenyl)-3a-methyl-2-(3-methylamino-propyl)-3a,4,9,10-tetrahydro-2,9,10a-triaza-cyclopenta[b]fluorene-1,3-dione] as the compound, how does the EC50 read?
A: The EC50 was 39.8 to 251 nM.

Q: With CCNCCCN1C(=O)N2[C@H](c3cccc(O)c3)c3[nH]c4ccc(OCC)cc4c3C[C@@]2(C)C1=O (racemic) [Example 187, (3aSR,10RS)-6-Ethoxy-2-(3-ethylamino-propyl)-10-(3-hydroxy-phenyl)-3a-methyl-3a,4,9,10-tetrahydro-2,9,10a-triaza-cyclopenta[b]fluorene-1,3-dione] as the compound, how does the EC50 read?
A: The EC50 was 39.8 to 251 nM.

Q: Which EC50 does the source give for CCOc1ccc2[nH]c3c(c2c1)C[C@@]1(C)C(=O)N(CCCNCC2CC2)C(=O)N1[C@@H]3c1cccc(O)c1 (racemic) [Example 188, (3aSR,10RS)-2-[3-(Cyclopropylmethyl-amino)-propyl]-6-ethoxy-10-(3-hydroxy-phenyl)-3a-methyl-3a,4,9,10-tetrahydro-2,9,10a-triaza-cyclopenta[b]fluorene-1,3-dione] here?
A: The EC50 was 39.8 to 251 nM.

Q: CCOc1ccc2[nH]c3c(c2c1)C[C@@]1(C)C(=O)N(CCCNCCOC)C(=O)N1[C@@H]3c1cccc(O)c1 (racemic) [Example 189, (3aSR,10RS)-6-Ethoxy-10-(3-hydroyx-phenyl)-2-[3-(2-methoxy-ethylamino)-propyl]-3a-methyl-3a,4,9,10-tetrahydro-2,9,10a-triaza-cyclopenta[b]fluorene-1,3-dione] was tested. Which EC50 did it give?
A: The EC50 was 39.8 to 251 nM.
